Converted amounts (≈) assume the structure as drawn. “Also recorded” adds a separate entry of the source.
Tests used:
Assay type in all cases: physicochemical
[1] = Dynamic Vapour Sorption (DVS)
Protocol: The following results and observations were obtained from this experiment (see Table 4 for further details): • After anti-solvent addition to the solutions at 20° C., the experiment carried out using tBME as the initial solvent system had solid adhered to the vial walls. The experiments carried out using MEK and THF as the initial solvent systems were cloudy, with some oil/gum formation noted. • After temperature cycling overnight, all experiments formed slurries. […] (peak at 98° C.) during the first heat. A glass transition with a mid-point half-height of ca. 32° C. was observed during the first cool. […] The residual tBME could not be quantified, due to overlapping signals with the API. Residual heptane was observed, equal to 0.91% w/w, or 0.05 equivalents. • ^1H NMR spectroscopy of the crystalline Form I isolated from MEK:heptane 20:80 v/v % was consistent with the structure of the compound of Formula I free base. The residual MEK could not be quantified, due to overlapping signals with the API. Residual heptane was observed, equal to 0.51% w/w, or 0.02 equivalents. • ^1H NMR spectroscopy of the crystalline Form I isolated from THF:heptane 22:78 v/v % was consistent with the structure of the compound of Formula I free base. The residual THF could not be quantified, due to overlapping signals with the API.
Crystalline forms of the compound of Formula I, including the crystalline Form I, were analyzed using Dynamic Vapour Sorption (DVS). Approximately 10-15 mg of sample was placed into a mesh vapour sorption balance pan and loaded into a DVS Intrinsic dynamic vapour sorption balance by Surface Measurement Systems. The sample was subjected to a ramping profile from 40-90% relative humidity (RH) at 10% increments, maintaining the sample at each step until a stable weight had been achieved (dm/dt 0.004%, minimum step length 30 minutes, maximum step length 120 minutes) at 25° C. After completion of the sorption cycle, the sample was dried using the same procedure to 0% RH and then a second sorption cycle back to 40% RH was carried out. Two cycles were performed. The weight change during the sorption/desorption cycles were plotted, allowing the hygroscopic nature of the sample to be determined. XRPD analysis was then carried out on the residual solid.

[2] = Potentiometric (pH-metric) pKa; conditions: pH 2.0-12.0, methanol-water co-solvent, Yasuda-Shedlovsky extrapolation
Protocol: Crystalline forms of the compound of Formula I, including the crystalline Form I, were analyzed using pKa and LogP. An automated titrator system with an incorporated UV-Vis spectrometer (SiriusT3™, Pion Inc.) was used to acquire the spectrometric and potentiometric data. The optical system consisted of a photodiode array detector with a deuterium lamp and a fiber optic dip probe.
The titrator module consisted of a temperature controller (by Peltier device with in-situ thermocouple), pH electrode, an overhead stirrer, and motorized dispensers for the automatic delivery of assay titrants and reagents via capillaries. The instrumentation was operated using SiriusT3Control software (V2.0). Data processing and generation of the reported pKa and logP values was carried out using SiriusT3Refine software (V2.0). The titrants used were 0.5 M hydrochloric acid and 0.5 M potassium hydroxide, standardized using potassium hydrogen phthalate. ACS or HPLC grade methanol cosolvent was used for pKa determination. […]
An additional potentiometric assay was carried out to confirm the pKa. […] The aqueous pKa was extrapolated from the apparent pKa measured in the presence of co-solvents, using the Yasuda-Shedlovsky extrapolation equation. […]

[3] = 14-day stability testing (XRPD, HPLC, appearance); parameters: key to XRPD after storage: CRY: Crystalline; conditions: 14 days; for Post-Storage Observations (appearance): input White solid (NE12); for 14-Day Stability, Solid Purity after storage: open vial, input 98.9% area
Protocol: Crystalline forms of the compound of Formula I, including the crystalline Form I, were analyzed regarding stability. Approximately 10 mg of free base Form I was subjected to 14-day stability testing under the following conditions to assess developability: • 40° C./75% RH (open vial); • Ambient light, temperature and humidity conditions (open vial).
After 2 weeks under the specified conditions, XRPD and HPLC analysis was carried out on the resultant solid material. The sample appearance was monitored over 14 days.

[4] = Aqueous solubility study (slurry in deionized water, HPLC); parameters: key to XRPD of residual solid, Wet / XRPD of residual solid, Dry: CRY: Crystalline
Protocol: The aqueous solubility of the crystalline Form I was assessed using the following procedure: • Approximately 10 mg of the dried material was slurried in deionized water (100 μL) at 20° C. with stirring. • Further aliquots of water (50 μL) were added until a mobile slurry was obtained. A total of 600 μL was used. • The slurry was stirred at 20° C. for 24 h then separated by centrifugation (0.22 μm nylon filter). • The residual solid was analyzed by XRPD and then dried under vacuum at ambient temperature (ca. 20° C.) for 72 h, prior to re-analysis by XRPD. The results are shown in FIG. 45. • The pH of the mother liquor was measured. • The mother liquors were analyzed by HPLC for purity and concentration.

## COCCOc1cccc([C@@H]2CCN(CCn3cccc3)[C@H](C)[C@H]2COc2ccc3c(c2)C(=O)NC3)c1 [crystalline Form I, (−)-6-{[(trans, trans)-4-[3-(2-methoxyethoxy)phenyl]-2-methyl-1-[2-(1H-pyrrol-1-yl)ethyl]piperidin-3-yl]methoxy}-2,3-dihydro-1H-isoindol-1-one]
[1]; 25° C./80% RH, material isolated from tBME:heptane 50:50 v/v %
  DVS mass uptake: ca. 0.5 % w/w
[1]; 25° C./80% RH, tBME:Heptane 50:50
  Water Uptake (DVS, 25° C.) At 25° C./80%, RH: 0.5%
[1]; form after DVS analysis
  Post-DVS XRPD: retained; also recorded: Form I
[1]; material isolated from tBME:heptane 50:50 v/v %
  Hygroscopicity (DVS): slightly hygroscopic
[2]
  Potentiometric (pH-metric) pKa: confirmed the spectrometric pKa
[3]; 40° C./75% RH and ambient conditions
  Decrease in purity after storage (HPLC): ≤ 0.3 % area
[3]; 40° C./75% RH
  14-Day Stability, form by XRPD: retained; also recorded: Form I
  XRPD after storage: CRY
  Post-Storage Observations (appearance): White solid (NE12)
  14-Day Stability, Solid Purity after storage: 99.0 % area
[3]; Ambient light, temperature and humidity
  14-Day Stability, Solid Purity after storage: 98.6 % area
[3]; Ambient
  14-Day Stability, form by XRPD: retained; also recorded: Form I
  XRPD after storage: CRY
  Post-Storage Observations (appearance): White solid (NE12)
[4]; after slurrying in water and drying under vacuum 72 h
  XRPD of residual solid, Dry: CRY
[4]; after slurrying in water at 20° C. for 24 h
  XRPD of residual solid, Wet: CRY
[4]; thermodynamic from solid, deionized water, 20° C., slurry stirred 24 h, HPLC, mother liquor pH 6.84, read-out: Aqueous Solubility (solution concentration)
  solubility at 24 h: 97 µg/mL (≈ 193 µM)
[4]; water, 20° C., and after drying
  Form after slurrying in water (XRPD): retained
